Data reported in US20230331718A1, “COMPOSITIONS FOR MODULATING SPLICING” (Skyhawk Therapeutics, Inc., priority 2020, published 2023).

Legend:
[1] = tested on: SMN2 Splicing D7 (SMN Δ7 transcript); assay: SMN Quantitative Splicing Assay (qPCR); assay type: cell-based, human; conditions: 24 h, SMA patient fibroblasts (GM03813), 2.5 µM to 0.6 nM
Procedure: Spinal muscular atrophy (SMA) patient fibroblasts (GM03813, Coriell) were plated in 96-well plates at 50,000 cells/well. […] Treated cells were lysed and cDNA synthesized using the Fast Advanced Cells-to-Ct kit (Thermofisher A35378) according to the manufacturer’s instructions. 2 µL of each cDNA were used in qPCR reactions. […] Reactions were run in a Quant Studio 6 qPCR instrument with default settings.

SMN2 Protein = assay: SMN Protein Assay (MSD); assay type: cell-based, human; conditions: SMA patient fibroblasts, 48 hours, 0.6 nM to 2.5 µM
Procedure: Spinal muscular atrophy (SMA) patient fibroblasts were plated in 96-well plates at 7,000 cells/well. Compounds were added in concentrations ranging from 0.6 nM to 2.5 µM, incubated for 48 hours and the cells were lysed with 100 µL of lysis buffer. 20 µL of lysate was used for SMN protein measurement by Mesoscale Discovery (MSD) assay developed by PharmOptima (Michigan). A standard curve prepared with SMN protein ranging from 1 µg/ml to 19.5pg/ml was used in each MSD plate to calculate the absolute SMN protein amount in each sample.

Row | Structure (SMILES) | IC50 ([1]; Homo sapiens, Fibroblast) [nM] | EC50 (SMN2 Protein) [nM] | IC50 [1] [nM]
1 | CCn1ccc2cc(-c3ncc(N(C)C4CC5CCC(N5)[C@@H]4F)nn3)c(O)cc2c1=O (stereo partly drawn) [Compound 33] | 101 to 500 | 16 to 50 | 
2 | CN(c1cnc(-c2cc3cnn(C)c(=O)c3cc2O)nn1)[C@H]1C[C@@H]2CC[C@@](C)(N2)[C@H]1F [Compound 183] | 0.01 to 15 | 0.01 to 15 | 
3 | CCn1cc(F)c2cc(-c3ncc(N(C)[C@H]4C[C@@H]5CCC(N5)[C@H]4F)nn3)c(O)cc2c1=O [Compound 163, 2-Ethyl-4-fluoro-6-(6-{[(2R,3S,5S)-2-fluoro-8-azabicyclo[3.2.1]octan-3-yl](methyl)amino}-1,2,4-triazin-3-yl)-7-hydroayisoquinolin-1-one] | 0.01 to 15 | 0.01 to 15 | 
4 | CN(c1cnc(-c2cc3ccn(C)c(=O)c3cc2O)nn1)[C@H]1C[C@]2(C)COC[C@](C)(C1)N2 [Compound 152] | 0.01 to 15 | 0.01 to 15 | 
5 | CN(c1cnc(-c2cc3ccn(C)c(=O)c3cc2O)nn1)[C@@H]1C[C@H]2CCC(N2)[C@@H]1F [Compound 7B] | 16 to 50 | 0.01 to 15 | 
6 | CN(c1cnc(-c2cc3c(F)cn(C)c(=O)c3cc2O)nn1)[C@H]1C[C@]2(C)CCC(N2)[C@H]1F [Compound 38] | 0.01 to 15 | 0.01 to 15 | 
7 | Cc1cc2cc(-c3ncc(N(C)[C@H]4CC5CCC(N5)[C@H]4F)nn3)c(O)cc2cn1 (stereo partly drawn) [Compound 44] | 0.01 to 15 | 0.01 to 15 | 
8 | CN(c1cnc(-c2cc3cncnc3cc2O)nn1)C1CC2CCC(N2)[C@@H]1F (stereo partly drawn) [Compound 25] | 101 to 500 | 501 to 10000 | 
9 | CCc1cc(=O)c2cc(-c3ncc(N(C)[C@H]4C[C@@H]5CCCC(N5)[C@H]4F)nn3)c(O)cc2o1 [Compound 116] | 51 to 100 | 16 to 50 | 
10 | CN(c1cnc(-c2cc3cnn(C)c(=O)c3cc2O)nn1)[C@H]1C[C@]2(C)COC[C@](C)(C1)N2 [Compound 151] | 0.01 to 15 | 0.01 to 15 | 
11 | CN(c1cnc(-c2cc3ncn(C)c(=O)c3cc2O)nn1)C1CC2CCCC(N2)C1F (stereo not drawn) [Compound 123] | 0.01 to 15 | 0.01 to 15 | 
12 | CCn1ccc2cc(-c3ncc(N(C)C4CC5CCC(N5)[C@H]4F)nn3)c(O)cc2c1=O (stereo partly drawn) [Compound 34] | 0.01 to 15 | 0.01 to 15 | 
13 | CN(c1cnc(-c2cc3ccn(C(F)F)c(=O)c3cc2O)nn1)[C@@H]1CC2CCC(N2)[C@@H]1F (stereo partly drawn) [Compound 156] | 16 to 50 | 0.01 to 15 | 
14 | Cc1ncc2cc(O)c(-c3ncc(N(C)[C@H]4CC5CCC(N5)[C@H]4F)nn3)cc2n1 (stereo partly drawn) [Compound 40] | 16 to 50 | 0.01 to 15 | 
15 | Cc1nc2cc(O)c(-c3ncc(N(C)[C@@H]4C[C@@]5(C)CC[C@](C)(N5)[C@@H]4F)nn3)cc2nc1C [Compound 88] | 16 to 50 | 51 to 100 | 
16 | CN(c1cnc(-c2cc3occc(=O)c3cc2O)nn1)C1CC2CCC(N2)C1F (stereo not drawn) [Compound 17] | 16 to 50 | 16 to 50 | 
17 | CN(c1cnc(-c2cc3ncn(C)c(=O)c3cc2O)nn1)C1CC2CC[C@](C)(N2)[C@@H]1F (stereo partly drawn) [Compound 135] | 0.01 to 15 | 0.01 to 15 | 
18 | CCN1C=C(F)c2cc(-c3ncc(N(C)[C@@H]4CC5CCC(N5)[C@@H]4F)nn3)c(O)cc2O1 (stereo partly drawn) [Compound 162] | 51 to 100 | 0.01 to 15 | 
19 | Cc1nc2cc(O)c(-c3ncc(N(C)[C@H]4CC5CC[C@@H](N5)[C@H]4F)nn3)cc2nc1C [Compound 85] | 0.01 to 15 | 16 to 50 | 
20 | CN(c1cnc(-c2cc3ccn(CC(F)(F)F)c(=O)c3cc2O)nn1)[C@H]1C[C@@H]2CC[C@@H](N2)[C@H]1F [Compound 100] | 16 to 50 | 0.01 to 15 | 
21 | [2H]C([2H])([2H])N(c1cnc(-c2cc3c(F)cn(C([2H])([2H])[2H])c(=O)c3cc2O)nn1)[C@@H]1C[C@H]2CC[C@H](N2)[C@@H]1F [Compound 194] | 0.01 to 15 | 0.01 to 15 | 
22 | Cc1cc2cc(O)c(-c3ncc(N(C)[C@@H]4CC5CCC[C@H](N5)[C@@H]4F)nn3)cc2cn1 [Compound 77] | 16 to 50 | 16 to 50 | 
23 | CN(c1cnc(-c2cc3c(F)cn(C)c(=O)c3cc2O)nn1)[C@@H]1CC2CC(F)(F)C(C1)N2 (stereo partly drawn) [Compound 209] | 51 to 100 | 101 to 500 | 
24 | Cc1cc(=O)c2cc(-c3ncc(N(C)[C@@H]4C[C@H]5CC[C@H](N5)[C@@H]4F)nn3)c(O)cc2o1 (single isomer, unassigned) [Compound 1A] | 16 to 50 | 16 to 50 | 
25 | Cc1cc2cc(O)c(-c3ncc(N(C)[C@@H]4CC5CCC(N5)[C@@H]4F)nn3)cc2cn1 (stereo partly drawn) [Compound 45] | 16 to 50 | 16 to 50 | 
26 | CN(c1cnc(-c2cc3ncn(C)c(=O)c3cc2O)nn1)C1CC2CC(F)(F)C(C1)N2 (stereo not drawn) [Compound 143] |  | 51 to 100 | 101 to 500

Row | Structure (SMILES) | IC50 ([1]; Homo sapiens, Fibroblast) [nM] | EC50 (SMN2 Protein) [nM] | IC50 [1] [nM]
27 | [2H]C([2H])([2H])N(c1cnc(-c2cc3ncn(C([2H])([2H])[2H])c(=O)c3cc2O)nn1)[C@H]1C[C@@H]2CCC(N2)[C@H]1F [Compound 175] | 0.01 to 15 | 0.01 to 15 | 
28 | CN(c1cnc(-c2cc3cnn(C)c(=O)c3cc2O)nn1)[C@H]1CC2CCC(N2)[C@H]1F (single isomer, unassigned) [Compound 2B] | 0.01 to 15 | 0.01 to 15 | 
29 | Cc1coc2cc(-c3ncc(N(C)C4CC5CCC(N5)[C@@H]4F)nn3)c(O)cc2c1=O (stereo partly drawn) [Compound 27] | 0.01 to 15 | 0.01 to 15 | 
30 | CC(C)n1ncc2cc(-c3ncc(N(C)C4CC5CCC(N5)[C@@H]4F)nn3)c(O)cc2c1=O (stereo partly drawn) [Compound 29] | 501 to 10000 | 501 to 10000 | 
31 | CCn1ncc2cc(-c3ncc(N(C)[C@@H]4CC5CC[C@H](N5)[C@@H]4F)nn3)c(O)cc2c1=O [Compound 164] | 51 to 100 | 16 to 50 | 
32 | [2H]C([2H])([2H])n1cnc2cc(-c3ncc(N(C)[C@H]4C[C@@H]5CCC(N5)[C@H]4F)nn3)c(O)cc2c1=O [Compound 177] | 0.01 to 15 | 0.01 to 15 | 
33 | Cc1cc(=O)c2cc(O)c(-c3ncc(N(C)[C@H]4CC5CCC[C@@H](N5)[C@H]4F)nn3)cc2o1 [Compound 127] | 0.01 to 15 | 0.01 to 15 | 
34 | CCc1cc(=O)c2cc(-c3ncc(N(C)[C@H]4C[C@@H]5CCC(N5)[C@H]4F)nn3)c(O)cc2o1 [Compound 118] | 0.01 to 15 | 0.01 to 15 | 
35 | CN(c1cnc(-c2cc3ccn(C)c(=O)c3cc2O)nn1)[C@H]1CC2CCC(N2)[C@H]1F (single isomer, unassigned) [Compound 4B] | 0.01 to 15 | 0.01 to 15 | 
36 | [2H]C([2H])([2H])N(c1cnc(-c2cc3c(F)cn(C([2H])([2H])[2H])c(=O)c3cc2O)nn1)[C@H]1C[C@@H]2CC[C@@H](N2)[C@H]1C [Compound 193] | 0.01 to 15 | 0.01 to 15 | 
37 | CN(c1cnc(-c2cc3ccn(C)c(=O)c3cc2O)nn1)[C@@H]1CC2CCC(N2)[C@@H]1F (single isomer, unassigned) [Compound 4A] | 16 to 50 | 16 to 50 | 
38 | CCn1cnc2cc(-c3ncc(N(C)[C@H]4CC5CCC[C@@H](N5)[C@H]4F)nn3)c(O)cc2c1=O [Compound 125] | 0.01 to 15 | 16 to 50 | 
39 | CN(c1cnc(-c2cc3cnccc3cc2O)nn1)[C@@H]1CC2CCC(N2)[C@@H]1F (single isomer, unassigned) [Compound 5A] | 101 to 500 | 101 to 500 | 
40 | CCn1cnc2cc(-c3ncc(N(C)C4CC5CCC(N5)[C@H]4F)nn3)c(O)cc2c1=O (stereo partly drawn) [Compound 32] | 0.01 to 15 | 0.01 to 15 | 
41 | CN(c1cnc(-c2cc3occ(C(F)(F)F)c(=O)c3cc2O)nn1)[C@H]1C[C@@H]2CC[C@@H](N2)[C@H]1F [Compound 90] | 16 to 50 | 16 to 50 | 
42 | Cc1cc(=O)c2cc(-c3ncc(N(C)[C@H]4C[C@@H]5CC[C@@H](N5)[C@H]4F)nn3)c(O)cc2o1 (single isomer, unassigned) [Compound 1B] | 16 to 50 | 0.01 to 15 | 
43 | Cc1cnc2cc(O)c(-c3ncc(N(C)[C@H]4CC5CCCC(N5)[C@H]4F)nn3)cc2n1 (stereo partly drawn) [Compound 160] | 101 to 500 | 101 to 500 | 
44 | Cc1cnc2cc(O)c(-c3ncc(N(C)[C@@H]4CC5CCCC(N5)[C@@H]4F)nn3)cc2n1 (stereo partly drawn) [Compound 159] | 16 to 50 | 0.01 to 15 | 
45 | CCn1ncc2cc(-c3ncc(N(C)[C@H]4C[C@@H]5CCC(N5)[C@H]4F)nn3)c(O)cc2c1=O [Compound 165] | 0.01 to 15 | 0.01 to 15 | 
46 | CN(c1cnc(-c2cc3ncn(C)c(=O)c3cc2O)nn1)C1C[C@]2(C)CCC(N2)[C@H]1F (stereo partly drawn) [Compound 36] | 16 to 50 | 16 to 50 | 
47 | CCC1C[C@@H](N(C)c2cnc(-c3cc4oc(C(F)(F)F)c(C)c(=O)c4cc3O)nn2)[C@@H](F)[C@H](C)N1 (stereo partly drawn) [Compound 79] | 101 to 500 | 16 to 50 | 
48 | CN(c1cnc(-c2cc3c(=O)n(C)cnc3cc2O)nn1)C1CC2CCC(N2)[C@@H]1F (stereo partly drawn) [Compound 140] | 101 to 500 | 16 to 50 | 
49 | [2H]C([2H])([2H])n1ccc2cc(-c3ncc(N(C)[C@@H]4CC5CCC(N5)[C@@H]4F)nn3)c(O)cc2c1=O (stereo partly drawn) [Compound 158] | 0.01 to 15 | 0.01 to 15 | 
50 | CN(c1cnc(-c2cc3c(F)cn(C)c(=O)c3cc2O)nn1)[C@@H]1CC2CC[C@](C)(N2)[C@@H]1F [Compound 188] | 0.01 to 15 | 0.01 to 15 | 
51 | CN(c1cnc(-c2cc3occc(=O)c3cc2O)nn1)[C@H]1C[C@@H]2CCCC(N2)[C@H]1F [Compound 63] | 16 to 50 | 0.01 to 15 | 
